{
  "source": "patent US4518789A",
  "about": "“Phenyl alpha-acyloxyacetamide derivatives and their therapeutic use” (priority 1983, dated 1985)",
  "key": {"[1]": {"system": "itch provoked by papain or histamine dihydrochloride", "experiment": "Anti-pruritic effect on normal human skin (papain or histamine induced itch)", "format": "in vivo", "conditions": "2 to 5% topical, normal human adult volunteers", "description": "Itch provoking pruritic compositions were prepared as follows: papain 0.5% solution was prepared by dissolving papain 50 mg in 10 ml of saline, and histamine 0.2% solution was prepared by dissolving histamine dihydrochloride 20 mg in 10 ml of saline. Itching was provoked or induced as follows: a pruritic composition in a volume of 0.05 ml containing papain or histamine dihydrochloride as a pruritic agent was topically applied on the flexor forearm of normal human adult volunteers and the skin site was gently pricked rapidly through the solution with a 26-gauge needle to the level of the papillary dermis as described by Bernstein et al. (J. E. Bernstein, R. M. Swift, K. Soltani and A. L. Lorincz: Antipruritic Effect of an Opiate Antagonist, Naloxone Hydrochloride in Journal of Investigative Dermatology 78, 82-83, 1982). This technique provoked or induced itch sensation at the test skin site within a few minutes following the topical application of the pruritic composition. After itch sensation had been induced a composition containing 2 to 5% N-ethyl phenyl-alpha-acetoxyacetamide, N-phenethyl phenyl-alpha-acetoxyacetamide or other phenyl-alpha-acyloxyacetamide derivatives of the instant invention was topically applied on the pruritic skin site. The vehicle alone cream containing no active ingredient was used as a control."}, "pruritus ani": {"system": "pruritus ani", "experiment": "Topical treatment of pruritus ani", "format": "in vivo, human", "conditions": "1 to 5 percent, regular basis", "text": "(§1) It has already been established through tests in animals and humans that phenyl alpha-acyloxyacetamide derivatives are therapeutically effective for topical or systemic treatment of various dermatologic and other conditions."}, "[2]": {"system": "Eczemas, and Other Pruritic Disorders", "experiment": "Topical anti-pruritic effect in patients with pruritic disorders", "format": "in vivo, human", "conditions": "first category compounds, 2 to 5%", "source_text": "Patients with various kinds of pruritic disorders participated in this study. The cases included atopic eczema, patchy eczema, chronic eczema of the hands, lichen simplex chronicus, contact allergic eczema, pruritus of the aged, pruritus of hepatic origin, pruritus ani, pruritus vulvae, scalp pruritus and pruritus of other disorders such as mycosis fungoides, psoriasis and pityriasis rubra pilaris.\nTherapeutic compositions containing phenyl-alpha-acyloxyacetamides at 2 to 5% concentrations in cream, ointment, lotion or solution were prepared according to the Examples. The medicinal compositions were topically applied by the patient in an amount sufficient to cover the itching area of skin. Applications were made one to two times daily or as frequently as necessary and without occlusive dressings.\nTwo parameters have been used to compare degrees of anti-pruritic effect of phenyl-alpha-acyloxyacetamides. The first parameter is whether the relief of itching is complete (2+) or incomplete (1+). The second parameter is the number of hours the patient stays free of pruritus after the initial anti-pruritic effect. […] Therefore, the overall anti-pruritic effect of a compound may range from 2+ to 4+. […] 4+ for complete relief and lasting for more than 8 hours."}, "[3]": {"system": "scratching or licking induced by pruritic agent", "experiment": "Screening for anti-pruritic effect, topical application, hairless mouse challenged with pruritic agent", "format": "in vivo", "conditions": "5% solution topical, 30 minutes observation", "text": "Either the mouse or the rat may be used as a screening model for anti-pruritic compounds. Before testing hair is plucked from the test site of skin in haired animals. Therefore hairless strains of mouse or the strain of rat known as fuzzy rat is preferred as a screening model for the present purpose.\nA test composition containing 5% phenyl-alpha-acyloxyacetamide derivative in solution was topically applied to the left dorsal skin of a hairless mouse and a control vehicle solution was topically applied to the right dorsal skin of the same mouse. The same topical applications were repeated three times at 30 minute intervals. A challenging composition containing a pruritic agent, i.e. itch provoking substance, was then topically applied in a volume of 0.05 ml on both left and right dorsal skin of the same mouse. For the next 30 minutes the mouse was carefully observed for signs and symptoms of scratching or licking at the skin sites where the challenging pruritic composition had been topically applied.\nIf the mouse scratched or licked indiscriminately at both left and right sides, the test composition was determined to have no anti-pruritic property. […] To confirm the anti-pruritic effect of the test composition, the test solution was later topically applied to the right instead of the left dorsal skin of the same mouse. […]"}, "summer eczema-prurigo": {"system": "summer eczema-prurigo", "experiment": "Oral anti-scratch (anti-pruritic) treatment of dogs", "format": "in vivo", "conditions": "for adverse effects on repeated dosing: dog, in vivo, po; for duration of anti-scratch or anti-pruritic effect / drowsiness or intoxication / time to stop scratching / anti-pruritic or anti-scratching effect on repeated dosing: dogs; for duration of anti-scratch or anti-pruritic effect / drowsiness or intoxication / time to stop scratching: oral single dose 5 to 10 mg/kg; for drowsiness or intoxication / time to stop scratching: all three dogs; for anti-pruritic or anti-scratching effect on repeated dosing: oral, repeated at intervals of two to several days", "description": "Three dogs with summer eczema-prurigo were treated with oral administration of phenyl-alpha-acyloxyacetamide derivatives. Gelatin capsules containing N-ethyl phenyl-alpha-acetoxyacetamide or N-phenethyl phenyl-alpha-acetoxyacetamide at dosages ranging from 50 mg to 150 mg per capsule were prepared according to Examples. Single doses of 5 mg/kg to 10 mg/kg were administered orally to the dogs.\nOral doses containing N-ethyl phenyl-alpha-acetoxyacetamide or N-phenethyl phenyl-alpha-acetoxyacetamide were administered repeatedly to the dogs at intervals of two to several days."}, "[4]": {"system": "calming or sedative effects", "experiment": "Tranquilizing effect, oral administration in dogs", "format": "in vivo", "conditions": "test compounds 5 to 10 mg per kg", "description": "Hairless mice, white hairy mice and dogs were used in these studies.\nThree dogs weighing between 10 to 20 kg were given orally N-phenethyl phenyl-alpha-acetoxyacetamide or N-ethyl phenyl-alpha-acetoxyacetamide in gelating capsules at doses of 5 to 10 mg per kg."}, "[5]": {"system": "scratching or licking induced by pruritic agent", "experiment": "Screening for anti-pruritic effect, systemic (subcutaneous) administration, hairless mouse challenged with pruritic agent", "format": "in vivo", "conditions": "5% solution 0.1 ml subcutaneous, twice", "description": "Either the mouse or the rat may be used as a screening model for anti-pruritic compounds. Again, the hairless mouse or the fuzzy rat is a preferred strain in each species.\nA test composition in a volume of 0.1 ml containing 5% phenyl-alpha-acyloxyacetamide derivative in solution was injected subcutaneously to the hairless mouse. The same procedure was repeated once more 3 hours later. Two hours after the second injection the mouse was challenged with a pruritic composition either applied topically or administered subcutaneously. When the challenging composition containing a pruritic agent was given topically the solution in a volume of 0.05 ml was applied to the left dorsal skin. A control vehicle solution containing no pruritic agent in the same volume of 0.05 ml was topically applied on the right dorsal skin. For the next 30 minutes the mouse was carefully observed for signs and symptoms of scratching or licking at the skin sites where the pruritic composition and the control vehicle solution had been topically applied.\nIf the mouse scratched or licked only the left side of the skin where the pruritic composition had been topically applied the test composition which was injected subcutaneously at two and five hours earlier was determined to have no anti-pruritic property. […]"}, "common scratching": {"system": "common scratching", "experiment": "Systemic treatment of domestic dogs for common scratching", "format": "in vivo", "conditions": "oral single dose 5 to 10 mg per kg", "text": "as §1"}},
  "data": [
    {"compound": "CC(=O)OC(C(=O)NCCc1ccccc1)c1ccccc1", "note": "(stereo not drawn) [N-phenethyl phenyl-alpha-acetoxyacetamide]", "values": [
      {"measurement": "Anti-pruritic Effect", "setting": "[1]", "result": "substantial anti-pruritic effect"},
      {"measurement": "relief from itching and scratching", "setting": "pruritus ani", "result": "complete relief from itching and scratching"},
      {"measurement": "Anti-pruritic Effect", "setting": "[2]", "result": "4+ (complete relief and lasting for more than 8 hours)"},
      {"measurement": "Anti-pruritic Effect", "setting": "[3]", "result": "substantial anti-pruritic effect"},
      {"measurement": "adverse effects on repeated dosing", "setting": "summer eczema-prurigo", "result": "No evidence of adverse effects was detected"},
      {"measurement": "duration of anti-scratch or anti-pruritic effect", "setting": "summer eczema-prurigo", "result": "approximately 8 hours"},
      {"measurement": "drowsiness or intoxication", "setting": "summer eczema-prurigo", "result": "mentally alert as usual and did not have any signs or symptoms of drowsiness or intoxication"},
      {"measurement": "time to stop scratching", "setting": "summer eczema-prurigo", "result": "one"},
      {"measurement": "anti-pruritic or anti-scratching effect on repeated dosing", "setting": "summer eczema-prurigo", "result": "the same anti-pruritic or anti-scratching effect"},
      {"measurement": "tranquilizing / sedative effect", "setting": "[4]", "result": "mild tranquilizing effect"},
      {"measurement": "Anti-pruritic Effect", "setting": "[5]", "result": "substantial anti-pruritic effect"},
      {"measurement": "relief of scratching, duration", "setting": "common scratching", "result": "more than 8 hours"}
    ]},
    {"compound": "CCNC(=O)C(OC(C)=O)c1ccccc1", "note": "(stereo not drawn) [N-ethyl phenyl-alpha-acetoxyacetamide]", "values": [
      {"measurement": "Anti-pruritic Effect", "setting": "[1]", "result": "substantial anti-pruritic effect"},
      {"measurement": "relief from itching and scratching", "setting": "pruritus ani", "result": "complete relief from itching and scratching"},
      {"measurement": "Anti-pruritic Effect", "setting": "[2]", "result": "4+ (complete relief and lasting for more than 8 hours)"},
      {"measurement": "Anti-pruritic Effect", "setting": "[3]", "result": "substantial anti-pruritic effect"},
      {"measurement": "adverse effects on repeated dosing", "setting": "summer eczema-prurigo", "result": "No evidence of adverse effects was detected"},
      {"measurement": "duration of anti-scratch or anti-pruritic effect", "setting": "summer eczema-prurigo", "result": "approximately 8 hours"},
      {"measurement": "drowsiness or intoxication", "setting": "summer eczema-prurigo", "result": "mentally alert as usual and did not have any signs or symptoms of drowsiness or intoxication"},
      {"measurement": "time to stop scratching", "setting": "summer eczema-prurigo", "result": "one"},
      {"measurement": "anti-pruritic or anti-scratching effect on repeated dosing", "setting": "summer eczema-prurigo", "result": "the same anti-pruritic or anti-scratching effect"},
      {"measurement": "tranquilizing / sedative effect", "setting": "[4]", "result": "no detectable signs of sedation"},
      {"measurement": "Anti-pruritic Effect", "setting": "[5]", "result": "substantial anti-pruritic effect"},
      {"measurement": "relief of scratching, duration", "setting": "common scratching", "result": "more than 8 hours"}
    ]}
  ]
}
